Measured values taken from ChEMBL document CHEMBL3399953, “Structure-assisted ligand-binding analysis using fluorogenic photoaffinity labeling” (Bioorg Med Chem Lett, 2015).
Calls of active or inactive are those of the source. The rule behind the calls is not given here.

Columns and labels:
[1] = biological target: Glutamate dehydrogenase 1, mitochondrial (Bos taurus) (UniProt P00366); assay: Binding affinity to bovine glutamate dehydrogenase ATP binding site using assessed as photo labeling level at 80 uM by photo affinity labeling/reverse-phase HPLC of Lys-Cdigest assay in presence of ADP
Glutamate dehydrogenase 1, mitochondrial (Bos taurus), sequence (P00366 whole entry): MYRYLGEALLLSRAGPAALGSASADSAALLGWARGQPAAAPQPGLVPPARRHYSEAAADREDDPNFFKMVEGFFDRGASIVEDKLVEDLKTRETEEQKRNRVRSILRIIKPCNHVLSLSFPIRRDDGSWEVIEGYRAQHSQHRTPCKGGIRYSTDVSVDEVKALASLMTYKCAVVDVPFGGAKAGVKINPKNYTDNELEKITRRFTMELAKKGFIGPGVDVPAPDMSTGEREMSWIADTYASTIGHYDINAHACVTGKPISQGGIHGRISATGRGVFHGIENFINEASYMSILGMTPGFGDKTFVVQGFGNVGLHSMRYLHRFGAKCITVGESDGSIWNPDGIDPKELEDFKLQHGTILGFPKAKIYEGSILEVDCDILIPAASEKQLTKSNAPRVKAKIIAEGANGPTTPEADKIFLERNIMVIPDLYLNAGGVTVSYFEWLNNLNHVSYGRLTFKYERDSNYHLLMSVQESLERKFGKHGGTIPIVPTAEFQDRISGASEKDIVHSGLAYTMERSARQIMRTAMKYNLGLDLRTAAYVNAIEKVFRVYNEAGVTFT

[2] = biological target: Glutamate dehydrogenase 1, mitochondrial (Bos taurus) (UniProt P00366); assay: Binding affinity to bovine glutamate dehydrogenase ATP binding site using assessed as fluorescence intensity at 80 uM by photo affinity labeling/reverse-phase HPLC of Lys-Cdigest assay in presence of ATP
[3] = biological target: Glutamate dehydrogenase 1, mitochondrial (Bos taurus) (UniProt P00366); assay: Binding affinity to bovine glutamate dehydrogenase ATP binding site using assessed as decrease in photo labeling peak time at 80 uM by photo affinity labeling/reverse-phase HPLC of Lys-Cdigest assay in presence of 100 uM NADH/10 mM glutamate relative to NADH alone
[4] = biological target: Glutamate dehydrogenase 1, mitochondrial (Bos taurus) (UniProt P00366); assay: Binding affinity to bovine glutamate dehydrogenase ATP binding site using assessed as photo labeling level at 80 uM by photo affinity labeling/reverse-phase HPLC of Lys-Cdigest assay in presence of ATP
[5] = biological target: Glutamate dehydrogenase 1, mitochondrial (Bos taurus) (UniProt P00366); assay: Binding affinity to bovine glutamate dehydrogenase ATP binding site using assessed as photo labeling peak time at 80 uM by photo affinity labeling/reverse-phase HPLC of Lys-Cdigest assay in presence of 100 uM NADH/10 mM glutamate
[6] = biological target: Glutamate dehydrogenase 1, mitochondrial (Bos taurus) (UniProt P00366); assay: Binding affinity to bovine glutamate dehydrogenase ATP binding site using assessed as coumarin-labeled pepdite retention time at 80 uM by photo affinity labeling/reverse-phase HPLC of Lys-Cdigest assay in presence of ATP
[7] = biological target: Glutamate dehydrogenase 1, mitochondrial (Bos taurus) (UniProt P00366); assay: Binding affinity to bovine glutamate dehydrogenase ATP binding site using assessed as photo labeling level at 80 uM by photo affinity labeling/reverse-phase HPLC of Lys-Cdigest assay in presence of NADH

C/C(=C\c1ccc(C2(C(F)(F)F)N=N2)cc1O)C(=O)NCCNP(=O)(O)OP(=O)(O)OC[C@H]1O[C@@H](n2cnc3c(N)ncnc32)[C@H](O)[C@@H]1O
Activity [1]: Active | Activity [2]: Active

C/C(=C\c1ccc(C2(C(F)(F)F)N=N2)cc1O)C(=O)NCCNP(=O)(O)OP(=O)(O)OP(=O)(O)OC[C@H]1O[C@@H](n2cnc3c(N)ncnc32)[C@H](O)[C@@H]1O
inhibition [3]: 59% | Activity [1]: 10% | Activity [4]: 55% | Retention time [5]: 21.1 min | Retention time [6]: 21.1 min | Activity [7]: 89% | Activity [2]: Active
